Source: patent publication US8460906B2, “Immobilized product tolerant microorganisms” (Cobalt Technologies, Inc., priority 2008, dated 2013)
Like-named read-outs stand apart in the source and are kept apart here.

Legend:
[1] = tested on: mutants of C. saccharobutylicum strain Co-7449
Experimental: (§1) In some embodiments, solvent tolerant microorganisms are mutagenized and selected for increased solvent tolerance on solid support. In some embodiments, solvent tolerant mutants can be used for either solvent or organic acid production. […] In some embodiments of the present invention, solvent tolerance is a relative value that is measured by comparing the growth ability of a mutant microorganism on a semi-solid or solid support to the growth ability of the non-mutant parent microorganism on the same semi-solid or solid support. Typically, the semi-solid or solid support comprises a growth media and a specified concentration of a solvent that is usually measured on a volume to volume (v/v) basis. Generally, multiple containers, usually petri dishes, are filled with semi-solid or solid support representing a range of solvent concentration. […] The highest concentration at which colonies still form represents the solvent tolerance of the microorganism. An alternative solvent tolerance test method is to overlay the non-solvent support with a solution containing a specified concentration of a solvent.
Clostridium saccharobutylicum strain Co-7449 was grown in yeast extract medium (YEM) to an approximate OD600 of 3 and was treated with a final concentration of 50 μg/ml N-methyl-N′-nitro-N-nitrosoguanidine (MNNG) for 15 minutes. Cells were twice washed with glucose-free YEM and plated on Reinforced Clostridium Medium (RCM) at 10^−3 and 10^−4 dilution to recover 3000-4000 colonies.

[2] = tested on: Clostridium saccharobutylicum strain Co-7449; details: for highest butanol concentration of plates showing growth: solid media P2+4% Xylose
Experimental: as §1
(§2) On the first day, a seed train of a strain to be investigated was started in 5 ml cultures of P2+4% Xylose in the anaerobic hood. A 1-L volume of sterile P2 medium containing 4% Xylose and agar was prepared and place on hot plate. […] The solution was mixed well and plates were poured in a sterile environment. After the plates were solidified, they were transferred to the anaerobic hood and parafilmed immediately prior to storage overnight.
(§3) The next day, the OD600 of the seed train tubes was measured. […] Control tubes without inoculum were also prepared. Tubes were incubated in an anaerobic hood.
(§4) After 1 day and 3-4 days, the OD600 of liquid cultures was measured. Plates were examined for growth. […] OD600 at start (0 hr) was based on a 1:20 inoculation of the starter cultures.

[3] = tested on: mutants of C. saccharobutylicum strain Co-7449; details: suspension culture, colonies from 5% butanol RCM plates
Co-0124 [4] = details: solid media P2+4% Xylose
Experimental: as §2, §3, §4

Co-5673 [5] = details: solid media P2+4% Xylose
Experimental: as §2, §3, §4

[6] = tested on: environmental sample (isolate)
Experimental: An environmental sample (isolate) is obtained. The isolate is plated on a set of identical plates containing a nutrient agar.

Co-0124 [7] = details: liquid P2+4% Xylose, 24 and 96 hr time points
Experimental: as §3, §4

Co-7449 = details: liquid P2+4% Xylose, 24 and 96 hr time points
Experimental: as §3, §4

Co-5673 [8] = details: liquid P2+4% Xylose, 24 and 96 hr time points
Experimental: as §3, §4

butanol
tolerance for butanol compared to the parent Co-7449 strain ([1]; mutants grown on a solid support): at least a two-fold higher tolerance | growth on 5% butanol plates after culture in YEM without butanol ([1]; samples removed from liquid YEM, plated on 5% butanol plates): failed to grow | relative solvent tolerance of the mutants versus non-mutant parent strain ([1]; {}): at least 225% | butanol tolerance result on solid media ([2]; 24 hr, separate experiment): 2.1% | highest butanol concentration of plates showing growth ([2]; 24 hour): 0% | highest butanol concentration of plates showing growth ([2]; 96 hour): 2.2% | growth in YEM with 1.2% butanol added to the broth [3]: did not grow | highest butanol concentration of plates showing growth (Co-0124 [4]; 24 hour): 2.2% | highest butanol concentration of plates showing growth (Co-0124 [4]; 96 hour): 2.3% | highest butanol concentration of plates showing growth (Co-5673 [5]; 24 hour): 2.2% | highest butanol concentration of plates showing growth (Co-5673 [5]; 96 hour): 2.2% | butanol concentration the adapted strain grows in ([6]; after 20 passages on solid support with increasing butanol): 2.5% | highest butanol concentration of plates with colonies ([6]; unadapted isolate, no growth at 1.8% or 2.0%): 1.6% | highest butanol concentration at which OD600 increased (Co-0124 [7]): 1.6 % (v/v) | highest butanol concentration at which OD600 increased (Co-7449): 1.4 % (v/v) | highest butanol concentration at which OD600 increased (Co-5673 [8]): 1.4 % (v/v)
